For data set [1] the following is noted: prodrug vs acyclovir, refs (9,10); cited from earlier work.
The target of data set [2] is T1, hASBT (Homo sapiens, UniProt Q12908).
T1 construct: expressed in transfected cells; host or cells: COS cells (COS-hASBT)
T1 sequence (Q12908 1-348): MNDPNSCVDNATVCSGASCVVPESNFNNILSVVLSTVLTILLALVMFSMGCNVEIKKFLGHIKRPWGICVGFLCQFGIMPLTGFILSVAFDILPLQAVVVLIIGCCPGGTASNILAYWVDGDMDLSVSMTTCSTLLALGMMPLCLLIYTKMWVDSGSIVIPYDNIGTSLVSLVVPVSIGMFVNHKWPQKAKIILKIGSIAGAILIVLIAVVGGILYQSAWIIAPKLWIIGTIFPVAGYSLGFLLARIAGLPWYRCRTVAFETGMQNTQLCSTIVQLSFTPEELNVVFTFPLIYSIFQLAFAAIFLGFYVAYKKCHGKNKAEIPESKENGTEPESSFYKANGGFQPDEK
As to the kind of experiment: Sodium-enhanced uptake into COS-hASBT cells (FIG. 1). It is filed as cell-based. As to conditions: with vs without sodium. The text has this: FIG. 1 illustrates how this invention provides for improved uptake of active agent, and specifically the impact of sodium on the uptake of an acyclovir prodrug that utilizes the hASBT transporter, which is a sodium-dependent transporter. […] COS-hASBT cells express hASBT. Acyclovir valylchenodeoxycholate is a prodrug of acyclovir, where acyclovir valylchenodeoxycholate is a substrate for hASBT. Uptake from acyclovir valylchenodeoxycholate prodrug and uptake from acyclovir are shown as closed bar and open bar, respectively. […] Error bars represent SEM's.

The values below come from patent US20050025839A1, “Formulation approach to enhance transporter-mediated drug uptake” (priority 2003, published 2005).

SMILES strings stand for the structures.

As to `CC(C)[C@H](NC(=O)CC[C@@H](C)[C@H]1CC[C@H]2[C@@H]3[C@H](O)C[C@@H]4C[C@H](O)CC[C@]4(C)[C@H]3CC[C@]12C)C(=O)OCCOCn1cnc2c(=O)[nH]c(N)nc21` [acyclovir valylchenodeoxycholate], the “in vivo oral acyclovir bioavailability” value in data set [1] is on record as “enhance in vivo oral acyclovir bioavailability”. Also, the “Effect of sodium on uptake into COS-hASBT cells” value in data set [2] is “enhanced by sodium”.
Consider `Nc1nc2c(ncn2COCCO)c(=O)[nH]1` [acyclovir, reference compound], for which the “Effect of sodium on uptake into COS-hASBT cells” value in data set [2] is recorded as “did not enhance”.
